Entries after “also recorded” stand apart in the source; their conditions may differ.
Columns and labels:
[1] = test system: PDGFR-α/β, MAPK/ERK and PI3K/Akt pathways in TPC-1 cells; test: Western blot of PDGFR activation and MAPK/ERK, PI3K/Akt signalling, TPC-1; type: cell-based, human
Method: (§1) Primary cell culture and experimental cell lines were maintained in RPMI 1640 media supplemented with 10% FBS. The cells were seeded in a 100-mm culture dish and were grown in a humidified 5% CO2 incubator. For PDGF-BB stimulation (25 ng/ml), cells were grown to about 80% confluence and incubated in serum-free medium overnight prior to each experiment. MAPK/ERK inhibitors U0126 and PD98059 were purchased from Calbiochem (Toronto, Ontario, Canada). PI3K/Akt inhibitor ly294002 was purchased from Cell Signaling Technology (Danvers, Mass., USA). Cells that were treated with inhibitors were given varying concentrations: U0126; 2 umol/L and 10 umol/L; Ly294002 10 umol/L and 25 umol/L; Sunitinib 0.25 umol/L. In all cases, unless otherwise indicated the inhibitors were given to cells and 60 minutes later the PDGF-BB was added to the cultures followed by Western blot analysis.
(§2) Cells were lysed in RIPA buffer [150 mM NaCl, 100 mM Tris (pH 8.0), 1% Triton X-100, 1% deoxycholic acid, 0.1% SDS, 5 mM EDTA, and 10 mM NaF] supplemented with 1 mM sodium vanadate, 2 mM leupeptin, 2 mM aprotinin, 1 mM phenylmethylsulfonyl fluoride (PMSF), 1 mM DTT, 2 mM pepstatin, and 1:100 protease inhibitor cocktail set III on ice. After centrifugation at 4° C. at 18,000 rpf for 15 min, the supernatant was harvested as the total cellular protein extracts and stored at −80° C. The protein concentration was determined using Bio-Rad protein assay reagent (Richmond, Va., USA). Running samples were prepared by adding a sample reducing agent and SDS sample buffer, incubating at 98° C. for 5 min. Aliquots of protein extract samples were separated by SDS-polyacrylamide gel electrophoresis (SDS-PAGE) and transferred to nitrocellulose membrane. Membranes were blocked with 5% nonfat dry milk in 1×TBS containing 0.05% Tween-20 for 60 min, followed by incubation with primary antibodies 4° C. overnight. Protein bands were detected by incubation with horseradish peroxidase-conjugated antibodies (Pierce Biotechnology, Rockford, Ill., USA) and visualized with SuperSignal West Pico chemiluminescence substrate (Thermo Scientific, Rockford, Ill., USA).

TPC-1 cell line [2] = test: Cell viability (MTS assay), TPC-1; type: cell-based, human; settings: small molecule inhibitors Ly294002, U0126, 16 hours
Method: (§3) As previously described, Cytoselect™ 96-well cell invasion assay kit was used (Cell Biolabs, San Diego, Calif., USA) to assess cell invasiveness according to the manufacturer's protocol.^46 Briefly, TPC-1, BCPAP and 8305C after transfected with either PDGFRα siRNA or scramble siRNA, 10000 cells were starved overnight and added to the inserts, PDGF-BB was added to some wells at the concentration of 25 ng/mL, PDGF-BB was added 1 h later for inhibitors, sunitinib (0.2 umol/L), Ly294002 (10 umol/L) and (U0126) 2 umol/L, cells were seeded into the insert plate for 16 hours, the invasive cells passed through basement membrane layer to the bottom and dissociated from membrane by the addition of cells detachment buffer, the invasive cells were lysed and followed by quantification using CyQuant GR fluorescent Dye. For cell viability analysis 10000 cells were seeded per well and cultured for 16 hours. MTS assay (Promega, Madison, USA) was then performed in 4 replicates followed manufacturer's instructions. PTC cell lines transfected with PDGFR specific siRNA or scrambled control were plated at a density of 10,000 or 20,000/ml and cultured for 5 days. Cell counts were done on days 2, 3 and 5 using trypan blue (Sigma-Aldrich, Oakville, Canada) and results expressed as total number of viable cells. […] The absorbance was recorded by a BioRad spectrophotometer at day 5 of cell culture.

TPC-1 cell line [3] = test: Cytoselect cell invasion assay, TPC-1; type: cell-based, human
Method: (§4) As previously described, Cytoselect™ 96-well cell invasion assay kit was used (Cell Biolabs, San Diego, Calif., USA) to assess cell invasiveness according to the manufacturer's protocol.^46 Briefly, TPC-1, BCPAP and 8305C after transfected with either PDGFRα siRNA or scramble siRNA, 10000 cells were starved overnight and added to the inserts, PDGF-BB was added to some wells at the concentration of 25 ng/mL, PDGF-BB was added 1 h later for inhibitors, sunitinib (0.2 umol/L), Ly294002 (10 umol/L) and (U0126) 2 umol/L, cells were seeded into the insert plate for 16 hours, the invasive cells passed through basement membrane layer to the bottom and dissociated from membrane by the addition of cells detachment buffer, the invasive cells were lysed and followed by quantification using CyQuant GR fluorescent Dye. For cell viability analysis 10000 cells were seeded per well and cultured for 16 hours. MTS assay (Promega, Madison, USA) was then performed in 4 replicates followed manufacturer's instructions. PTC cell lines transfected with PDGFR specific siRNA or scrambled control were plated at a density of 10,000 or 20,000/ml and cultured for 5 days. Cell counts were done on days 2, 3 and 5 using trypan blue (Sigma-Aldrich, Oakville, Canada) and results expressed as total number of viable cells. MTS assay was done in 7 replicates as per manufacturer's instructions. The absorbance was recorded by a BioRad spectrophotometer at day 5 of cell culture.

thyroid cancer = thyroid cancer trials; cited from earlier work
[4] = test system: PDGFR-α (phospho-PDGFR), PI3K/Akt and MAPK/ERK pathways; test: Western blot of primary cell culture from metastatic papillary thyroid cancer lymph node, PDGF-BB stimulation; type: cell-based, human
Method: as §1, §2

8305C cell line = test: Cytoselect cell invasion assay, 8305C; type: cell-based, human
Method: as §4

[5] = test system: PDGFR-α/β, MAPK/ERK and PI3K/Akt pathways in 8305C cells; test: Western blot of PDGFR activation and MAPK/ERK, PI3K/Akt signalling, 8305C; type: cell-based, human
Method: as §1, §2

BCPAP cell line = test: Cytoselect cell invasion assay, BCPAP; type: cell-based, human
Method: as §3

[6] = test system: TPC-1, 8305C and BCPAP cell lines; test: Cell growth of PTC cell lines with sunitinib (FIG. 6); type: cell-based, human; settings: all of the cell lines; absence of PDGF-BB stimulation
KTC-1 cell line = test: Cytoselect cell invasion assay, KTC-1; type: cell-based, human; settings: KTC-1 (neither subunit); also increasing levels or longer stimulation
TPC-1-derived cell lines = test: Mice xenograft model with shRNA TPC-1-derived cell lines; type: in vivo; settings: mice inoculated with cell lines in Matrigel; 20 days after inoculation; versus other groups
Method: To selectively and stably silence the expression of the PDGFR-alpha and-beta receptors in the TPC-1, BCPAP and 8305C cell lines we used the HuSH-29 shRNA Vector system (HuSH-29 shRNA Retroviral Vector Systems; OriGene Technologies, Inc.). Briefly, to silence the expression of the PDGFR-alpha receptor PTC cells were transduced with the pRS shRNA retrovirus system (Puro+) followed by selection in puromycin (2.5 ug/mL). Resistant cells were assessed by western blot to select the sequences that produced the higest levels of protein expression knock-down. The sequences used for these studies were […] (SEQ ID NO: 1) for the TPC-1 cell line and […] (SEQ ID NO: 2) for the 8305C cell line. To selectively knock down the PDGFR-beta receptor were transduced with the pGFP-BR-S shRNA retrovirus system (BSD+) followed by selection in blasticidin (500 ug/mL). Resistant cells were again assessed by western blot to select the sequences that produced the higest levels of protein expression knock-down. […]
The experiments of FIG. 13 depict knock down of PDGFR-alpha or -beta subunit results in opposing effects in tumour formation on a mice xenograft model. […] The average tumour volume (top panel) and tumour weight (bottom panel) was much higher for mice given cell lines expressing only PDGFR-alpha and statistical significance between groups were calculated 20 days after inoculation.

[7] = primary culture, PDGF-BB 25 ng/ml

## N#CC(=C(/N)Sc1ccccc1N)/C(C#N)=C(\N)Sc1ccccc1N [U0126]
[1]; PDGF-BB stimulated TPC-1 cells, U0126 2 umol/L and 10 umol/L
  MAPK/ERK pathway blockade (Western blot): decreased protein expression; also recorded: nearly complete
TPC-1 cell line [2]
  cell viability: not significantly altered
TPC-1 cell line [3]; TPC-1, U0126 2 umol/L (MAPK/ERK blockade), PDGF-BB 25 ng/mL 1 h later, 16 hours
  PDGF-BB mediated increases in invasive potential: sufficient to abrogate increases in invasive potential; also recorded: prevents PDGF-BB mediated increases in invasive potential

## CCN(CC)CCNC(=O)c1c(C)[nH]c(/C=C2\C(=O)Nc3ccc(F)cc32)c1C [sunitinib, Sunitinib malate]
Thyroid cancer
  outcomes: favourable outcomes
  side-effect profiles: acceptable side-effect profiles
[1]; TPC-1, sunitinib 0.25 umol/L, PDGF-BB 25 ng/ml 60 minutes later
  activation of PDGFR-α/β (phospho-PDGFR): completely disrupts PDGFR activation; also recorded: completely blocks activation of PDGFR-α/β
[1]; TPC-1, sunitinib 0.25 umol/L, PDGF-BB stimulated
  activity in PI3K/Akt and MAPK/ERK pathways: significant decreased activity
[4]; sunitinib 0.25 umol/L given 60 minutes before PDGF-BB 25 ng/ml, semi-quantitative Western blot
  activation of PDGFR (phospho-PDGFR) and downstream PI3K/Akt and MAPK/ERK pathways by PDGF-BB: can be blocked; also recorded: completed blocked
8305C cell line; 8305C, sunitinib 0.2 umol/L, PDGF-BB 25 ng/mL added 1 h later, 16 hours
  change in invasive potential with PDGF-BB stimulation: virtually completely abates any change in invasive potential; also recorded: abated any change in invasive potential
8305C cell line; 8305C, sunitinib 0.2 umol/L, no PDGF-BB
  invasive potential without PDGF-BB stimulation: does not alter invasive potential
[5]; 8305C, sunitinib 0.25 umol/L, PDGF-BB 25 ng/ml 60 minutes later
  activation of PDGFR-α/β (phospho-PDGFR): completely disrupts PDGFR activation; also recorded: completely blocks activation of PDGFR-α/β
[5]; 8305C, sunitinib 0.25 umol/L, PDGF-BB stimulated
  activity in PI3K/Akt and MAPK/ERK pathways: significant decreased activity
BCPAP cell line; BCPAP, sunitinib 0.2 umol/L, no PDGF-BB
  invasive potential without PDGF-BB stimulation: does not alter invasive potential
[6]
  effect on cell growth: not significant
TPC-1 cell line [3]; TPC-1, sunitinib 0.2 umol/L, PDGF-BB 25 ng/mL added 1 h later, 16 hours
  change in invasive potential with PDGF-BB stimulation: virtually completely abates any change in invasive potential; also recorded: abated any change in invasive potential
TPC-1 cell line [3]; TPC-1, sunitinib 0.2 umol/L, no PDGF-BB
  invasive potential without PDGF-BB stimulation: does not alter invasive potential

## O=c1cc(N2CCOCC2)oc2c(-c3ccccc3)cccc12 [Ly294002]
TPC-1 cell line [2]
  cell viability: not significantly altered

## CNC(=O)c1cc(Oc2ccc(NC(=O)Nc3ccc(Cl)c(C(F)(F)F)c3)cc2)ccn1 [Sorafenib, sorafenib]
Thyroid cancer
  outcomes: favourable outcomes
  side-effect profiles: acceptable side-effect profiles

## PDGF-BB: PDGFR ligand known to bind all subunits of PDGFR, purchased from GIBCO
[1]; TPC-1, PDGF-BB 25 ng/ml
  phospho-PDGFR-α/β, phospho-Akt, and phospho-ERK: strong up-regulation
[1]; TPC-1, PDGF-BB stimulation
  time of return of levels to baseline: ~60 min
  time to increases in phospho-PDGFR-α/β, phospho-Akt and phospho-ERK: ≤ 5 min
  time to maximal activation of both pathways: ≤ 15 min
[4]; [7]
  phospho-Akt (PI3K/Akt pathway): significant increases
  phospho-ERK (MAPK/ERK pathway): small increase
  phospho-PDGFR: activated PDGFR-α
8305C cell line; 8305C (PDGFR-α only), PDGF-BB 25 ng/mL
  invasive potential on PDGF-BB stimulation: significant increase in invasive potential; also recorded: increased invasive potential
[5]; 8305C (BRAF mutation, MAPK/ERK constitutively activated), PDGF-BB
  phospho-ERK: small increase
[5]; 8305C, PDGF-BB 25 ng/ml
  phospho-PDGFR-α/β, phospho-Akt, and phospho-ERK: strong up-regulation
BCPAP cell line; BCPAP (PDGFR-β only), PDGF-BB 25 ng/mL
  invasive potential on PDGF-BB stimulation: did not exhibit any change in invasive potential
KTC-1 cell line
  invasive potential on PDGF-BB stimulation: did not exhibit any change in invasive potential
TPC-1 cell line [3]; TPC-1 (PDGFR-α and -β), PDGF-BB 25 ng/mL
  invasive potential on PDGF-BB stimulation: significant increase in invasive potential; also recorded: increased invasive potential

## TGCCTCCGACGAGATCTATGAGATCATGC (SEQ ID NO: 3) (listed as Homo sapiens) [sh PDGFR-beta, shRNA (pGFP-BR-S retrovirus system) knocking down PDGFR-beta in TPC-1; cells then express only PDGFR-alpha]
TPC-1-derived cell lines
  average tumour volume: much higher
  tumour weight: much higher
